Measured values as given in patent US20240254093A1, “GPR35 Agonist Compounds” (Heptares Therapeutics Limited, priority 2021, published 2024).

How the values were obtained:
[1] = biological target: GPR35 (Homo sapiens (Human), UniProt Q9HC97); assay: Label-free DMR functional assay in HT-29 cells; type: cell-based; settings: HT-29 cell line endogenously expressing human GPR35; DMR normalised to Lodoxamide
Description: HT-29 cells (ATCC HTB-38) kept in continuous culture in McCoys (Thermo 16600082) supplemented with 10% FBS. Day prior to assay, cells harvested with TrypLE (Gibco12604-013), and plated at 20 k/well in culture media in a total volume of 50 ul in Corning EPIC 384 well plates (5040) overnight 37° C. 5% CO2. On the day of assay, cell media was removed and replaced with assay buffer (HBSS+20 mM HEPES pH7.4) and reincubated for 1 h. Compounds were prepared in 100% DMSO in ECHO LDV 384 source plates. Cell plates were read on an EPIC plate reader at room temperature for 15 mins, read paused, and cell plate added to LabCyte ECHO 550 for addition of 50 nl per well compound by acoustic transfer. Plates were immediately placed back into the EPIC reader, read unpaused and Dynamic Mass Redistribution measured for 60 minutes. Raw data was analysed by EPIC Analyser software and max peak taken per concentration to enable EC50 determination. All raw DMR data was normalised to Lodoxamide and buffer corrected.
(§1) • Ki values derived from concentration response analysis in HEKf cell membranes overexpressing GPR35a isoform. EC50 values derived from concentration response analysis in HT-29 cell line endogenously expressing human GPR35.

[2] = biological target: Human GPR35a isoform (Homo sapiens (Human), UniProt Q9HC97); assay: Human GPR35a isoform binding (radioligand, HEK293f membranes); settings: HEKf cell membranes overexpressing GPR35a isoform; read-out: Human GPR35 Ki
Sequence of Human GPR35a isoform (Q9HC97 whole entry, canonical isoform): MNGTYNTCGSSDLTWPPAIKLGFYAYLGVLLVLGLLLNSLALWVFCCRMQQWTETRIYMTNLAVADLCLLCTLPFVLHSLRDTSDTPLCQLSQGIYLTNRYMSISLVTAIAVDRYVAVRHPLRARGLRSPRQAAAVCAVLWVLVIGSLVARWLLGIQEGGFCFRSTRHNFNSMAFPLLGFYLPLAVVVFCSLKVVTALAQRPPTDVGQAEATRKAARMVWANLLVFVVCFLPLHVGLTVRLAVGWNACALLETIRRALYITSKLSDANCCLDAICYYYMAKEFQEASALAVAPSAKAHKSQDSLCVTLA
Description: Overexpression of Human GPR35a Baculovirus in HEK293f cells at a cell density of 2.5×10^6 cells/mL and a multiplicity of infection of 2.5 over 24 h in Pro293 (Lonza)+5% FBS, 1% Glutamax and 0.4% Pen/Strep. Cells harvested and centrifuged at 2500 RPM for 10 mins at 4° C. The supernatant was then poured off and the pellet stored at −80° C. The pellet was defrosted and re-suspended in 15 mL of homogenising buffer (20 mM HEPES, 10 mM EDTA, pH 7.4). Then homogenised in mechanical homogeniser (VMR) for 10 seconds. The membrane was centrifuged in centrifuge tubes at 40,000 g for 15 mins at 4° C. The supernatant was poured away and re-suspended in 15 mL of homogenising buffer. Homogenised for 20 seconds. The membrane was centrifuged at 40,000 g for 45 mins at 4° C. The membrane was re-suspended in 3 mL of storage buffer (20 mM HEPES, 0.1 mM EDTA, pH 7.4) mixing well. The resulting membranes were then stored at −80°. GPR35 cell membrane homogenates were re-suspended in the binding buffer (50 mM TRIS+10 mM MgCl2 pH 7.4) to a final assay concentration of 5 ug/well. Test compounds were diluted in dimethylsulphoxide (DMSO (Sigma Aldrich, UK)), to form a 10 point ½ log concentration curve. Test compounds were added per plate, followed by 7 nM 3H-27966. 0.1 uM FAC Lodoxamide was added in order to allow non-specific binding to be calculated. Finally, membrane was added to each well on the plate. After 60 min incubation at room temperature, membranes were filtered onto a unifilter, 96-well white microplate with bonded GF/B filter, pre-soaked in ddH20, with a TomTec cell harvester, and washed 5 times with distilled water. Plates were dried prior to 50 ul/well scintillant added, sealed and radioactivity measured using a MicroBeta analyser. IC50 values were derived from the inhibition curve and affinity constant (Ki) values were calculated using the Cheng-Prussoff equation, where; pKi=−log 10 Ki.
as §1

Sequence of GPR35 (Q9HC97 whole entry): as the sequence (Q9HC97 whole entry, canonical isoform) above

Compound	EC50 [1] [nM]	Ki [2] [nM]
O=c1c(O)c(Nc2cccc(-c3nn[nH]n3)c2)c1=O [Example 1, 3-((3-(1H-tetrazol-5-yl)phenyl)amino)-4-hydroxycyclobut-3-ene-1,2-dione]	8.68	–
O=c1c(O)c(Nc2cc(-c3nn[nH]n3)cc(C(F)(F)F)c2)c1=O [Example 2, 3-((3-(1H-tetrazol-5-yl)-5-(trifluoromethyl)phenyl)amino)-4-hydroxycyclobut-3-ene-1,2-dione]	0.9	0.48
O=c1c(O)c(Nc2cc(-c3ccccc3)cc(-c3nn[nH]n3)c2)c1=O [Example 3, 3-((5-(1H-tetrazol-5-yl)-[1,1′-biphenyl]-3-yl)amino)-4-hydroxycyclobut-3-ene-1,2-dione]	2.27	–
CCOC(=O)c1cccc(-c2cc(Nc3c(O)c(=O)c3=O)cc(-c3nn[nH]n3)c2)c1 [Example 4, ethyl 3′-((2-hydroxy-3,4-dioxocyclobut-1-en-1-yl)amino)-5′-(1H-tetrazol-5-yl)-[1,1′-biphenyl]-3-carboxylate]	2.5	3.83
O=C(NCc1ccccc1)c1cccc(-c2cc(Nc3c(O)c(=O)c3=O)cc(-c3nn[nH]n3)c2)c1 [Example 6, N-benzyl-3′-((2-hydroxy-3,4-dioxocyclobut-1-en-1-yl)amino)-5′-(1H-tetrazol-5-yl)-[1,1′-biphenyl]-3-carboxamide]	0.62	1.82
COCCNC(=O)c1ccc(-c2cc(Nc3c(O)c(=O)c3=O)cc(-c3nn[nH]n3)c2)cc1 [Example 7, 3′-((2-hydroxy-3,4-dioxocyclobut-1-en-1-yl)amino)-N-(2-methoxyethyl)-5′-(1H-tetrazol-5-yl)-[1,1′-biphenyl]-4-carboxamide]	4.2	2.77
COCCOc1ccc(CNC(=O)c2ccc(-c3cc(Nc4c(O)c(=O)c4=O)cc(-c4nn[nH]n4)c3)cc2)cc1 [Example 8, 3′-((2-hydroxy-3,4-dioxocyclobut-1-en-1-yl)amino)-N-(4-(2-methoxyethoxy)benzyl)-5′-(1H-tetrazol-5-yl)-[1,1′-biphenyl]-4-carboxamide]	0.66	1.47
COc1cccc(-c2cc(Nc3c(O)c(=O)c3=O)cc(-c3nn[nH]n3)c2)c1 [Example 9, 3-hydroxy-4-((3′-methoxy-5-(1H-tetrazol-5-yl)-[1,1′-biphenyl]-3-yl)amino)cyclobut-3-ene-1,2-dione]	0.83	0.46
CCc1cc(Nc2c(O)c(=O)c2=O)cc(-c2nn[nH]n2)c1 [Example 10, 3-((3-ethyl-5-(1H-tetrazol-5-yl)phenyl)amino)-4-hydroxycyclobut-3-ene-1,2-dione]	2.34	2.75
O=C(O)c1cccc(-c2cc(Nc3c(O)c(=O)c3=O)cc(-c3nn[nH]n3)c2)c1 [Example 11, 3′-((2-hydroxy-3,4-dioxocyclobut-1-en-1-yl)amino)-5′-(1H-tetrazol-5-yl)-[1,1′-biphenyl]-3-carboxylic acid]	4.31	6.24
O=C(NCc1ccc(C(F)(F)F)cc1)c1ccc(-c2cc(Nc3c(O)c(=O)c3=O)cc(-c3nn[nH]n3)c2)cc1 [Example 12, 3′-((2-hydroxy-3,4-dioxocyclobut-1-en-1-yl)amino)-5′-(1H-tetrazol-5-yl)-N-(4-(trifluoromethyl)benzyl)-[1,1′-biphenyl]-4-carboxamide]	0.03	0.31
O=c1c(O)c(Nc2ccc(F)c(-c3nn[nH]n3)c2)c1=O [Example 13, 3-((4-fluoro-3-(1H-tetrazol-5-yl)phenyl)amino)-4-hydroxycyclobut-3-ene-1,2-dione]	2.39	0.99
O=c1c(O)c(Nc2ccc(Cl)c(-c3nn[nH]n3)c2)c1=O [Example 14, 3-((4-chloro-3-(1H-tetrazol-5-yl)phenyl)amino)-4-hydroxycyclobut-3-ene-1,2-dione]	4.9	0.6
O=c1c(O)c(Nc2cc(-c3ccc(C(F)(F)F)cc3)cc(-c3nn[nH]n3)c2)c1=O [Example 15, 3-((5-(1H-tetrazol-5-yl)-4′-(trifluoromethyl)-[1,1′-biphenyl]-3-yl)amino)-4-hydroxycyclobut-3-ene-1,2-dione]	2.02	0.16
O=c1c(O)c(Nc2cc(-c3ccc(OCc4ccccc4)nc3)cc(-c3nn[nH]n3)c2)c1=O [Example 16, 3-((3-(6-(benzyloxy)pyridin-3-yl)-5-(1H-tetrazol-5-yl)phenyl)amino)-4-hydroxycyclobut-3-ene-1,2-dione]	0.27	0.06
COc1cc(-c2nn[nH]n2)cc(Nc2c(O)c(=O)c2=O)n1 [Example 17, 3-hydroxy-4-((6-methoxy-4-(1H-tetrazol-5-yl)pyridin-2-yl)amino)cyclobut-3-ene-1,2-dione]	9.25	7.85
O=c1c(O)c(Nc2cc(-c3nn[nH]n3)cc(-c3ccccc3)n2)c1=O [Example 18, 3-hydroxy-4-((6-phenyl-4-(1H-tetrazol-5-yl)pyridin-2-yl)amino)cyclobut-3-ene-1,2-dione]	5.18	2.65
O=c1c(O)c(Nc2cc(-c3ccc4nn(Cc5ccc(C(F)(F)F)cc5)cc4c3)cc(-c3nn[nH]n3)c2)c1=O [Example 19, 3-((3-(1H-tetrazol-5-yl)-5-(2-(4-(trifluoromethyl)benzyl)-2H-indazol-5-yl)phenyl)amino)-4-hydroxycyclobut-3-ene-1,2-dione]	0.08	0.36
O=c1c(O)c(Nc2cc(-c3ccc(OCc4ccc(C(F)(F)F)cc4)nc3)cc(-c3nn[nH]n3)c2)c1=O [Example 20, 3-((3-(1H-tetrazol-5-yl)-5-(6-((4-(trifluoromethyl)benzyl)oxy)pyridin-3-yl)phenyl)amino)-4-hydroxycyclobut-3-ene-1,2-dione]	7.68	1.06
O=c1c(O)c(Nc2cc(-c3nn[nH]n3)cc(Oc3ccccc3)n2)c1=O [Example 22, 3-hydroxy-4-((6-phenoxy-4-(1H-tetrazol-5-yl)pyridin-2-yl)amino)cyclobut-3-ene-1,2-dione]	1.39	3.66
O=c1c(O)c(Nc2cc(-c3ccc4cn(CCOc5ccc(C(F)(F)F)cc5)nc4c3)cc(-c3nnn[nH]3)c2)c1=O [Example 23, 3-((3-(1H-tetrazol-5-yl)-5-(2-(2-(4-(trifluoromethyl)phenoxy)ethyl)-2H-indazol-6-yl)phenyl)amino)-4-hydroxycyclobut-3-ene-1,2-dione]	0.12	0.46
O=c1c(O)c(Nc2cc(-c3nn[nH]n3)cc(C3CC3)c2)c1=O [Example 24, 3-((3-cyclopropyl-5-(1H-tetrazol-5-yl)phenyl)amino)-4-hydroxycyclobut-3-ene-1,2-dione]	8.19	15.2
O=c1c(O)c(Nc2cc(-c3ccc4[nH]ncc4c3)cc(-c3nn[nH]n3)c2)c1=O [Example 25, 3-((3-(1H-indazol-5-yl)-5-(1H-tetrazol-5-yl)phenyl)amino)-4-hydroxycyclobut-3-ene-1,2-dione]	0.44	0.37
O=c1c(O)c(Nc2cc(-c3ccc(OCCOc4cc(C(F)(F)F)cc(C(F)(F)F)c4)nc3)cc(-c3nn[nH]n3)c2)c1=O [Example 26, 3-((3-(6-(2-(3,5-bis(trifluoromethyl)phenoxy)ethoxy)pyridin-3-yl)-5-(1H-tetrazol-5-yl)phenyl)amino)-4-hydroxycyclobut-3-ene-1,2-dione]	1.04	0.36
O=c1c(O)c(Nc2cc(-c3ccc(OCCOc4ccc(C(F)(F)F)cc4)nc3)cc(-c3nn[nH]n3)c2)c1=O [Example 27, 3-((3-(1H-tetrazol-5-yl)-5-(6-(2-(4-(trifluoromethyl)phenoxy)ethoxy)pyridin-3-yl)phenyl)amino)-4-hydroxycyclobut-3-ene-1,2-dione]	0.54	0.75
